This is an account of results in patent US20090215710A1, “CARBOHYDRATE BASED TOLL-LIKE RECEPTOR (TLR) ANTAGONISTS” (RELIANCE LIFE SCIENCES PVT. LTD., priority 2007, published 2009).

The subject of one data set is TNF. The experiment in a line: Pre-screen for TNF inhibition activity of synthesized molecules (Table 1). The data set is classed as cell-based.
Data set [1] in a line: Cell viability in pre-screen (Table 1). The data set is classed as cell-based.

For `CC(=O)CCC(=O)OC[C@H]1O[C@@H](O[C@H]2[C@@H]3OC(c4ccccc4)OC[C@H]3OC(O)[C@@H]2NC(=O)C(Cl)(Cl)Cl)[C@H](OC(C)=O)[C@@H](OC(C)=O)[C@@H]1OC(=O)CCl` (stereo partly drawn) [RSCL-0627, 2,3-Di-O-acetyl-4-O-chloroacetyl-6-O-levulinoyl-β-D-glucopyranosyl-(1-3)-2-deoxy-2-trichloroacetamido-4,6-O-benzylidene-α/β-D-glucopyranoside], the “% TNF Inhibition” value in the data set on TNF (1 uM) is given as 0%; in the data set on TNF (10 uM), 80%; with TNF (50 uM) it was 104%; with TNF (100 uM), 100%. For the same compound, the “% Viability” value in data set [1] (1 uM) was determined as 105%; in data set [1] (10 uM) it was 90%; in data set [1] (50 uM), 33%; in data set [1] (100 uM) it was 13%.

For `COc1ccc(O[C@@H]2O[C@@H]3COC(c4ccccc4)O[C@H]3[C@H](O)[C@H]2O)cc1` (stereo partly drawn) [RSCL-0370, 1-O-(p-Methoxyphenyl)-4,6-O-benzylidene-β-D-glucopyranoside], the “% TNF Inhibition” value is 0% with TNF (1 uM), 0% in the data set with TNF (10 uM), 0% in the data set with TNF (50 uM) and 16% in the data set with TNF (100 uM). Moreover, the “% Viability” value in data set [1] (1 uM) was found to be 115%; in data set [1] (10 uM) it was 120%; in data set [1] (50 uM), 108%; in data set [1] (100 uM) it was 107%.

On to `COc1ccc(O[C@H]2O[C@@H]3COC(c4ccccc4)O[C@H]3[C@H](O[C@@H]3O[C@H](CO)[C@@H](OC(C)=O)[C@H](OC(C)=O)[C@H]3OC(C)=O)[C@H]2NC(=O)C(Cl)(Cl)Cl)cc1` (stereo partly drawn) [RSCL-0626, p-Methoxy phenyl-O-(2,3,4-tri-O-acetyl-β-D-glucopyranosyl)-(1-3)-2-deoxy-2-trichloroacetamido-4,6-O-benzylidene-α-D-glucopyranoside], for which the “% TNF Inhibition” value with TNF (1 uM) was 39%; with TNF (10 uM), 43%; in the data set on TNF (50 uM) it was 13%; in the data set on TNF (100 uM), 52%. In addition, the “% Viability” value in data set [1] (1 uM) is reported as 97%; in data set [1] (10 uM) it was 92%; in data set [1] (50 uM), 95%; in data set [1] (100 uM), 89%.

For the compound `COc1ccc(O[C@@H]2O[C@H](COC(=O)CCC(C)=O)[C@@H](OC(=O)CCl)[C@H](OC(C)=O)[C@H]2OC(C)=O)cc1` [RSCL-0393, 1-O-(p-Methoxyphenyl)-2,3-di-O-acetyl-4-O-chloroacetyl-6-O-levulinoyl-β-D-glucopyranoside], the “% TNF Inhibition” value in the data set with TNF (1 uM) is 2%; with TNF (10 uM) it was 13%; in the data set with TNF (50 uM) it was 18%; with TNF (100 uM), 76%. Also, the “% Viability” value is given as 84% in data set [1] (1 uM), 85% in data set [1] (10 uM), 81% in data set [1] (50 uM) and 86% in data set [1] (100 uM).

“2,3-Di-O-acetyl-4-O-chloroacetyl-6-O-levulinoyl-β-D-glucopyranosyl)-(1-3)-2-deoxy-2-trichloroacetamido-α/β-D-glucopyranoside [RSCL-0632]”: the “% TNF Inhibition” value was found to be 0% with TNF (1 uM), 0% in the data set on TNF (10 uM), 0% with TNF (50 uM) and 30% in the data set with TNF (100 uM). The “% Viability” value in data set [1] (1 uM) is recorded as 115%; in data set [1] (10 uM) it was 113%; in data set [1] (50 uM), 94%; in data set [1] (100 uM) it was 84%.
